Data reported in US20100048693A1, “Treatment of COPD” (The Regents of the University of Colorado, A Body Corporate, priority 2006, published 2010).
Entries after “also recorded” stand apart in the source; their conditions may differ.

Columns and labels:
Type in all cases: cell-based, human
PGI2S gene expression = test: Real time RT-PCR of PGI2S gene expression in HPMVEC; conditions: for PGI2S gene (mRNA) expression after aldehyde exposure: HPMVEC, 1 and 10 μM aldehyde, about 24 hours after exposure; for effect of pre-incubation on PGI2S gene expression in CSE-exposed cells: four hour pre-incubation (SOD mimetic 100 U/ml, catalase 100 U/ml, DPI 0.1 μM, L-NAME 1 mM), 1% CSE for 4 hours
Description: (§1) Human pulmonary microvascular endothelial cells (HPMVEC, passage 4-6) and EGM-2-MV medium (containing 5% FBS, hydrocortisone, human recombinant VEGF, recombinant human fibroblast growth factor-B, recombinant insulin-like growth factor-1, human recombinant epidermal growth factor, ascorbic acid, gentamycin and amphotericin-B) were purchased from Clonetics Corporation (Baltimore, Md., USA). Cells were grown to confluency at 37° C. in a humidified atmosphere of 21% O2, 5% CO2. N-acetyl-L-cysteine (NAC) and diphenyleneiodonium chloride (DPI) were obtained from Sigma-Aldrich (St. Louis, Mo., USA). N-nitro-l-arginine methyl ester (L-NAME) was obtained from Cayman Chemical (Ann Arbor, Mich.). Z-Asp2,6-dichlorobenzoylmethylketone (Caspase Family Inhibitor IV) was obtained from Alexis Biochemicals (San Diego, Calif., USA). Both an SOD mimetic and catalase were obtained from National Jewish Medical Center. Acrolein, an α,β-unsaturated aldehyde, and several […] aldehydes (acetaldehyde, crotonaldehyde, proprionaldehyde (i.e., propanal) were purchased from Sigma Aldrich (St. Louis, Mo., USA)
(§2) Cigarette smoke extract was prepared by a modification of a previously published method, e.g., Carp et al., Am. Rev. Respir. Dis., 1978, 118, 617-621. Briefly, one non-filtered Camel cigarette (R.J. Reynolds, Winston-Salem, N.C.) was passed through 10 mL of Phosphate-buffered saline (PBS) using a vacuum pump. This 100% CSE was adjusted to pH 7.4 and filtered through a […] pore filter (Fisher, Hampton, N.H., USA) and the CSE was diluted to the appropriate concentration and added to endothelial cells within 10 min of preparation.
(§3) Total RNA was extracted using the RNeasy Mini Kit (Qiagen, Valencia, Calif.), following the manufacturer's instructions. 1 μg of RNA was reverse-transcribed using random primer and MultiScribe RT (High-Capacity cDNA Archive Kit, Applied Biosystems, Foster City, Calif.). Assay-on-demand gene expression probe for PGI2S: Hs00168766, COX-1:Hs00377721, COX-2:Hs00153133, cPLA2:Hs00233352, and β-actin: Hs999999903 were obtained from Applied Biosystems (Foster City, Calif.) PCR reactions were performed in 20 μL volumes containing 9 μL of cDNA, 10 μL of TaqMan Master Mix (Applied Biosystems) and 1 μL of assay-on-demand primer and probe. Real-time PCR was conducted on the Applied Biosystems GeneAmp 5700 sequence Detection System and signal was detected by the GeneAmp 5700 SDS software (Applied Biosystems). All values were reported relative to β-Actin expression.

COX-2 gene expression = test: Real time RT-PCR of COX-2 gene expression in HPMVEC; conditions: for effect of pre-incubation on COX-2 gene expression in CSE-exposed cells: four hour pre-incubation (SOD mimetic 100 U/ml, catalase 100 U/ml, DPI 0.1 μM, L-NAME 1 mM), 1% CSE for 4 hours; for COX-2 gene expression after aldehyde exposure: HPMVEC, 1 and 10 μM acrolein
Description: as §1, §2, §3

HPMVEC = test: Caspase 3/7 assay of apoptosis in HPMVEC exposed to CSE; conditions: HPMVEC pre-treated with Iloprost 1 μM and 10 μM for 30 minutes prior to CSE exposure
Description: Human pulmonary microvascular endothelial cells (HPMVEC, passage 4-6) and EGM-2-MV medium (containing 5% FBS, hydrocortisone, human recombinant VEGF, recombinant human fibroblast growth factor-B, recombinant insulin-like growth factor-1, human recombinant epidermal growth factor, ascorbic acid, gentamycin and amphotericin-B) were purchased from Clonetics Corporation (Baltimore, Md., USA). Cells were grown to confluency at 37° C. in a humidified atmosphere of 21% O2, 5% CO2. N-acetyl-L-cysteine (NAC) and diphenyleneiodonium chloride (DPI) were obtained from Sigma-Aldrich (St. Louis, Mo., USA). N-nitro-l-arginine methyl ester (L-NAME) was obtained from Cayman Chemical (Ann Arbor, Mich.). […]
Immunohistochemical staining on both PGI2S transgenic mice and wild type littermates was conducted using similar protocols to the above, however, cleaved caspase 3 antibody (Cell Signaling technology Danvers, Mass.) was used to assess apoptosis. In a blinded fashion, small, medium and large pulmonary arteries were scored for endothelial caspase staining. In-vitro, the rate of apoptosis in primary human microvascular endothelial cells was analyzed by the Vybrant Apoptosis Assay Kit from Molecular Probes Inc. (Eugene, Oreg., USA) according to the manufacturer's protocol. […] In addition, apoptosis of HPMVEC was assessed by Caspase 3/7 assay according to the protocol provided (Promega Madison, Wis.).

PGI2S protein expression = test: Western blotting of PGI2S protein expression in HPMVEC; conditions: about 48 hours post exposure
Description: as §1
20 μg of protein was separated on NuPAGE Novex 4-12% Bis-Tris Gel (Invitrogen Carlsbad, Calif., USA) and transferred to a polyvinylidene fluoride (PVDF) membrane (Invitrogen, Carlsbad, Calif., USA). The membrane was blocked with 5% nonfat dry milk in PBS containing 0.05% Tween (PBST) for 1 hour. […]

With `CC(=O)N[C@@H](CS)C(=O)O` [NAC, N-acetyl-L-cysteine] the “prevention of down-regulation of PGI2S gene expression by 1% CSE” value (PGI2S gene expression; HPMVEC pre-incubated four hours with 1 mM NAC, then 1% CSE, RT-PCR at four hours and 24 hours) was “no significant prevention” and the “effect on CSE mediated induction of COX-2 gene expression” value (COX-2 gene expression; HPMVEC pre-incubated four hours with 1 mM NAC, then 1% CSE, P<0.05) was “significantly reduce or prevent”.
For `CC=O` [acetaldehyde], the “PGI2S gene (mRNA) expression after aldehyde exposure” value (“PGI2S gene (mRNA) expression” below) (PGI2S gene expression) was “did not result in suppression”.
With `C/C=C/C=O` [crotonaldehyde] the “PGI2S gene (mRNA) expression” value (PGI2S gene expression) was “did not result in suppression”.
For `CC#CCC(C)[C@H](O)/C=C/[C@@H]1[C@H]2C/C(=C/CCCC(=O)O)C[C@H]2C[C@H]1O` (stereo partly drawn) [Iloprost], the “endothelial apoptosis as measured by caspase 3/7 activity” value (HPMVEC) was “significant reduction; also recorded: at least partial protective anti-apoptotic effect”.
For `c1ccc2c(c1)[I+]c1ccccc1-2` [DPI, diphenyleneiodonium chloride], the “effect of pre-incubation on PGI2S gene expression in CSE-exposed cells” value (PGI2S gene expression) was “did not significantly affect” and the “effect of pre-incubation on COX-2 gene expression in CSE-exposed cells” value (COX-2 gene expression) was “did not significantly affect”.
For `CCC=O` [propionaldehyde], the “PGI2S gene (mRNA) expression” value (PGI2S gene expression) was “did not result in suppression” and the “PGI2S gene (mRNA) expression” value (PGI2S gene expression; listed as Propionaldehyde) was “statistically significant induction”.
`C=CC=O` [Acrolein] was tested, and the “PGI2S gene (mRNA) expression” value (PGI2S gene expression) was “reduction in PGI2S gene expression”, the “COX-2 gene expression after aldehyde exposure” value (COX-2 gene expression) was “trend toward induction” and the “COX-2 gene expression after aldehyde exposure” value (COX-2 gene expression; listed as acrolein) was “No significant change”. The “PGI2S protein expression after aldehyde exposure” value (PGI2S protein expression) was “suppressed”.
catalase was tested, and the “effect of pre-incubation on PGI2S gene expression in CSE-exposed cells” value (PGI2S gene expression) was “did not significantly affect” and the “effect of pre-incubation on COX-2 gene expression in CSE-exposed cells” value (COX-2 gene expression) was “did not significantly affect”.
